Assay results taken from PubChem BioAssay (NCI).
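Where inhibition never reached the appropriate level, the endpoint shown equals the highest concentration tested. Otherwise, values were interpolated linearly from a five-concentration, 48-hour dose response in 96-well plates. At the GI50, growth is halved. TGI: concentration producing complete growth inhibition.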

How the values were obtained:
Experiment in all cases: NCI anticancer screen, dose series, 48 h
A498 renal = tested on: A498 renal
DU-145 prostate = tested on: DU-145 prostate
K-562 leukemia = tested on: K-562 leukemia
MDA-MB-231 breast = tested on: MDA-MB-231 breast
MDA-MB-435 = tested on: MDA-MB-435
NCI-H23 lung = tested on: NCI-H23 lung
OVCAR-3 ovarian = tested on: OVCAR-3 ovarian
SK-MEL-2 melanoma = tested on: SK-MEL-2 melanoma
TK-10 renal = tested on: TK-10 renal
UO-31 renal = tested on: UO-31 renal

| Structure (SMILES) | GI50 (A498 renal) | TGI (A498 renal) | GI50 (DU-145 prostate) | TGI (DU-145 prostate) | GI50 (K-562 leukemia) | TGI (K-562 leukemia) | GI50 (MDA-MB-231 breast) | TGI (MDA-MB-231 breast) | GI50 (MDA-MB-435) | TGI (MDA-MB-435) | GI50 (NCI-H23 lung) | TGI (NCI-H23 lung) | GI50 (OVCAR-3 ovarian) | TGI (OVCAR-3 ovarian) | GI50 (SK-MEL-2 melanoma) | TGI (SK-MEL-2 melanoma) | GI50 (TK-10 renal) | TGI (TK-10 renal) | GI50 (UO-31 renal) | TGI (UO-31 renal) |
| --- | --- | --- | --- | --- | --- | --- | --- | --- | --- | --- | --- | --- | --- | --- | --- | --- | --- | --- | --- | --- |
| O=C(O)c1ccccc1Nc1ccc2nnc(-c3ccncc3)n2n1 | 15.5 µM | 29.5 µM | 11.5 µM | 25.6 µM | 15.1 µM | > 100 µM | 5.27 µM | 24.2 µM | 4.02 µM | 23.1 µM | 14.1 µM | 54.2 µM | 9.7 µM | 24.8 µM | 3.15 µM | 9.08 µM | 7.13 µM | 25 µM | 3.81 µM | 15.5 µM |
| Cc1ccc(NC(=O)c2cc3ccccc3cc2O)c(C)c1.Cc1ccc(NC(=O)c2cc3ccccc3cc2[O-])c(C)c1.[Ni+2] | 3.44 µM | 13.4 µM | 3.27 µM | 13.2 µM | 3.7 µM | 12.9 µM | 2.33 µM | 5.27 µM | 3.38 µM | 13.1 µM | 2.48 µM | 10.1 µM | 4.23 µM | 20.6 µM | 1.53 µM | 3.62 µM | 4.66 µM | 17 µM | 3.79 µM | 11.9 µM |
| Cc1cc2nc(C(Cl)Cl)nc(-c3ccccc3)n2n1 | 2.6 µM | 11.2 µM | 1.95 µM | 5.41 µM | 4.61 µM | > 100 µM | 3.44 µM | 20.9 µM | 5.84 µM | 23.9 µM | 3.06 µM | 10.9 µM | 2.11 µM | 4.53 µM | 27.8 µM | > 100 µM | 4.73 µM | 51.2 µM | 5.02 µM | 21.6 µM |
| CC[CH2][Sn]([CH2]CC)([O]C(=O)Cc1ccc(F)cc1)[O][Sn]([CH2]CC)([CH2]CC)[O]C(=O)Cc1ccc(F)cc1 | 0.149 µM | 0.469 µM | 0.537 µM | 1.8 µM | 0.0266 µM | 1.81 µM | 0.406 µM | 1.76 µM | 0.393 µM | 1.61 µM | 0.0539 µM | 0.276 µM | 0.431 µM | 1.27 µM | 0.115 µM | 0.393 µM | 0.125 µM | 0.393 µM | 0.482 µM | 1.65 µM |
| Cn1c(=O)c2[nH]c(CCCCc3nc4c([nH]3)c(=O)n(C)c(=S)n4C)nc2n(C)c1=S |  | > 100 µM |  | > 100 µM |  | > 100 µM |  | > 100 µM |  | > 100 µM |  | > 100 µM |  | > 100 µM |  | > 100 µM |  | > 100 µM |  | > 100 µM |
| CCOCCOC[C@H]1CCCN(c2ccnc3sc(C(N)=O)c(N)c23)C1 | > 100 µM | > 100 µM | 73.1 µM | > 100 µM | 8.44 µM | > 100 µM | 58.7 µM | > 100 µM | 29.8 µM | > 100 µM | 10.6 µM | > 100 µM | 23.6 µM | > 100 µM | 11.1 µM | > 100 µM | > 100 µM | > 100 µM | 15.3 µM | > 100 µM |
| Clc1ccc2c(NCCNc3nc(N4CCCC4)nc4ccccc34)ccnc2c1 | 1.8 µM | 3.4 µM | 1.17 µM | 2.73 µM | 0.118 µM | 3.29 µM | 0.811 µM | 2.24 µM | 1.6 µM | 3.11 µM | 2.05 µM | 5.22 µM | 0.492 µM | 1.07 µM | 1.86 µM | 3.85 µM | 2.07 µM | 4.2 µM | 1.26 µM | 2.51 µM |
| O=C(NCCCCCCNC(=O)OCc1ccc2c(Cl)cc(Cl)c(O)c2n1)OCc1ccc2c(Cl)cc(Cl)c(O)c2n1 | 1.25 µM | 2.55 µM | 1.03 µM | 2.24 µM | 0.381 µM |  | 1.17 µM | 2.49 µM | 0.443 µM | 1.71 µM | 1.42 µM | 3.06 µM | 0.327 µM | 1.24 µM | 1.45 µM | 2.99 µM | 1.18 µM | 2.45 µM | 0.619 µM | 1.95 µM |
| O=[N+]([O-])c1cc2c(c([N+](=O)[O-])c1)Nc1ccccc1O2 | 1.73 µM | 9.34 µM | 7.32 µM | > 100 µM | 4.64 µM | > 100 µM | 6.38 µM | 30.7 µM | 8 µM | > 100 µM | 2.78 µM | 87.2 µM | 3.69 µM | > 100 µM | 7.48 µM | 40.3 µM | 9.98 µM | 46.7 µM | 2.76 µM | 36.5 µM |
| Nc1nc(-c2cccs2)cs1 |  | > 100 µM |  | > 100 µM |  | > 100 µM |  | > 100 µM |  | > 100 µM |  | > 100 µM |  | > 100 µM |  | > 100 µM |  | > 100 µM |  | > 100 µM |
| Oc1c(I)cc(I)cc1CN(Cc1ccccn1)Cc1ccccn1 | 1.29 µM | 6.19 µM | 1.57 µM | 20.4 µM | 0.548 µM | 14.6 µM | 1.86 µM | > 51.3 µM | 2.19 µM | 18.7 µM | 2.48 µM | 40.6 µM | 1.83 µM | 15.1 µM | 2.08 µM | 12.2 µM | 0.367 µM | 11.7 µM | 0.554 µM | 3.07 µM |
| CC#CC(=O)N1CC[C@@H](n2c(=O)n(-c3ccc(Oc4ccccc4)cc3)c3c(N)ncnc32)C1 | 6.38 µM | 44.6 µM | 33.5 µM | > 100 µM |  |  | 19.5 µM | 72.6 µM | 27.4 µM | > 100 µM | 36.8 µM | > 100 µM | 25.7 µM | > 100 µM | 38.8 µM | > 100 µM | 35 µM | > 100 µM | 10.8 µM | > 100 µM |
| Nc1nc(-c2ccc(Cl)cc2)cc(-c2ccccc2)c1-c1nc2ccccc2o1 | 15.8 µM | 30.5 µM | 7.68 µM | 30.4 µM | 3.69 µM | > 100 µM | 5.02 µM | 17.8 µM | 9.45 µM | 26.9 µM | 6.24 µM | 34.6 µM | 7.29 µM | 27.3 µM | 15.5 µM | 39.2 µM | 3.02 µM | 8.95 µM | 10.3 µM | 26.4 µM |
